The text below walks through data of US20070148124A1, “Cellulose and acrylic based polymers and the use thereof for the treatment of infectious diseases” (priority 2004, published 2007).

For data set [1] the following is noted: cited from earlier work.
The subject of the next data set is HIV-1IIIB. In words: microbe, parasite or virus in culture. The class given is cell-based.
For data set [2], the system named is MAGI-R5 or HeLa CD4 LTR β-gal cells.
Another data set concerns HIV-1BaL. Put plainly: Virus attachment assay. Type of data set: cell-based. The following applies: Assay Virus HIV-1BaL.
A further data set deals with HIV-1JR-CSF. Put plainly: CD4-dependent HIV transmission inhibition assay (cell-associated virus, GHOST cells). The class given is cell-based.
For another data set, the system named is HIV-1SKI. Described as above. The class given is cell-based.
Data set [3] concerns CCR5 tropic (JRCSF) strain of HIV-1. Put plainly: HIV-1 infection and replication in PBMCs, RT activity. The class given is cell-based. The following applies: seven days, CCR5 virus.
Data set [4] deals with dual tropic (BR/92/014) strain of HIV-1. The data set is described as above. Type of data set: cell-based. The following applies: seven days, dual tropic virus.
The test system of data set [5] is CXCR4 tropic (CMU06) strain of HIV-1. The description is as above. The class given is cell-based. The following applies: seven days, CXCR4 virus.
Data set [6] in a line: in vitro. The following applies: human.
The nature of data set [7]: in vitro. The following applies: human. This is another data set of the same source.
Data set [8] is described as follows: in vitro. To be noted: human. The source holds these as a separate data set.
[9] abbreviates: CXCR4 Virus HIV-1SKI, cell-associated.
Where [10] appears, read: Human immunodeficiency virus 1, Assay Virus HIV-1JR-CSF.
The mark [11] stands for this setting: Human immunodeficiency virus 1, CXCR4 Virus HIV-1SKI, cell-associated.

Read-outs that look alike come from different tables or passages of the source.

Regarding D-mallic acid, L-mallic acid, in data set [1] (room temperature), the “pKa Values (first value)” value was 3.4 and the “pKa Values (second value)” value was 5.2.

In general, IC50 refers to the point on the concentration scale where inhibition reaches its midpoint. A word on the IC90: it is the concentration at which the effect reaches the 90% level. With `Cc1ccc(-c2ccc3c(c2)C=C(C(=O)Nc2ccc(C[N+](C)(C)C4CCOCC4)cc2)CCC3)cc1` [TAK 779], the values for the CC50 (in the data set with GHOST cells; in data set [2]; with HeLa CD4 LTR β-gal cells) were > 10 nM, > 200 nM and > 200 nM, respectively. The IC50 with HIV-1IIIB (Assay Virus HIV-1IIIB, read-out: IC50) is > 200 nM; in the data set on HIV-1BaL it was < 0.002 nM; in the data set with HIV-1JR-CSF (Assay Virus HIV-1JR-CSF) it was 0.002 nM; with HIV-1SKI (setting [9]) it was > 10 nM. In addition, the concentration for an effect of 90% (IC90) with HIV-1IIIB (Assay Virus HIV-1IIIB, read-out: IC90) was > 200 nM; with HIV-1BaL it was 0.04 nM; with HIV-1JR-CSF (Assay Virus HIV-1JR-CSF), 0.55 nM; in the data set on HIV-1SKI (setting [9]) it was > 10 nM.

With phthalate, in data set [1] (moiety on the cellulose backbone), the “pKa of the second (remaining dissociable) carboxylic acid group” value was 5.28.

Consider “hydroxypropyl methylcellulose trimellitate [HPMCT]”, for which the CC50 in the data set with GHOST cells (pH 4) is given as 0.38%; with GHOST cells (pH 5.85) it was 0.38%; in the data set on GHOST cells (pH 6.5) it was 0.39%.

For the compound `Cc1cn([C@H]2C[C@H](N=[N+]=[N-])[C@@H](CO)O2)c(=O)[nH]c1=O` [AZT], the IC50 in data set [3] is 1.48 nM; in data set [4], 0.27 nM; in data set [5] it was < 0.1 nM.

As for `c1cc(CN2CCCNCCNCCCNCC2)ccc1CN1CCCNCCNCCCNCC1` [AMD 3100], the IC50 was 1 nM in the data set with HIV-1IIIB (Human immunodeficiency virus 1); 3790 nM in the data set on HIV-1BaL (Human immunodeficiency virus 1); > 10000 nM in the data set on HIV-1JR-CSF (setting [10]); 10 nM in the data set with HIV-1SKI (Human immunodeficiency virus 1, Pre-incubation pH: Standard Assay); 1 nM with HIV-1SKI (Human immunodeficiency virus 1, pH 4, Pre-incubation pH 4.0); 6 nM in the data set with HIV-1SKI (Human immunodeficiency virus 1, pH 5.85, Pre-incubation pH 5.85). In addition, the IC50 is 80 nM with HIV-1SKI (Human immunodeficiency virus 1, pH 6.5, Pre-incubation pH 6.5) and 5 nM in the data set on HIV-1SKI (setting [11]). The 90% effect concentration (IC90) in the data set on HIV-1IIIB (Human immunodeficiency virus 1) is 8 nM; in the data set on HIV-1BaL (Human immunodeficiency virus 1), > 10000 nM; in the data set with HIV-1JR-CSF (setting [10]), > 10000 nM; in the data set with HIV-1SKI (setting [11]), 60 nM. The CC50 (in data set [2] (human); in the data set “in vitro [6]”; in the data set “in vitro [7]”) was > 10000 nM each time. The CC50 at 4 h in the data set “in vitro [8]” was > 10000 nM; in the data set “in vitro [8]” (pH 4), 4030 nM; in the data set “in vitro [8]” (pH 5.85), > 10000 nM; in “in vitro [8]” (pH 6.5), > 10000 nM.
